For 34 compounds, EC50 results are on record in patent US20250282776A1, “Bicyclic TLR7 Agonists and Uses Thereof” (Bristol-Myers Squibb Company, priority 2024, published 2025).

The target of experiment [1] is T1, human TLR8 (hTLR8) (Homo sapiens, UniProt Q9NR97).
T1 construct: expressed in transfected cells
T1 sequence (Q9NR97 27-1041): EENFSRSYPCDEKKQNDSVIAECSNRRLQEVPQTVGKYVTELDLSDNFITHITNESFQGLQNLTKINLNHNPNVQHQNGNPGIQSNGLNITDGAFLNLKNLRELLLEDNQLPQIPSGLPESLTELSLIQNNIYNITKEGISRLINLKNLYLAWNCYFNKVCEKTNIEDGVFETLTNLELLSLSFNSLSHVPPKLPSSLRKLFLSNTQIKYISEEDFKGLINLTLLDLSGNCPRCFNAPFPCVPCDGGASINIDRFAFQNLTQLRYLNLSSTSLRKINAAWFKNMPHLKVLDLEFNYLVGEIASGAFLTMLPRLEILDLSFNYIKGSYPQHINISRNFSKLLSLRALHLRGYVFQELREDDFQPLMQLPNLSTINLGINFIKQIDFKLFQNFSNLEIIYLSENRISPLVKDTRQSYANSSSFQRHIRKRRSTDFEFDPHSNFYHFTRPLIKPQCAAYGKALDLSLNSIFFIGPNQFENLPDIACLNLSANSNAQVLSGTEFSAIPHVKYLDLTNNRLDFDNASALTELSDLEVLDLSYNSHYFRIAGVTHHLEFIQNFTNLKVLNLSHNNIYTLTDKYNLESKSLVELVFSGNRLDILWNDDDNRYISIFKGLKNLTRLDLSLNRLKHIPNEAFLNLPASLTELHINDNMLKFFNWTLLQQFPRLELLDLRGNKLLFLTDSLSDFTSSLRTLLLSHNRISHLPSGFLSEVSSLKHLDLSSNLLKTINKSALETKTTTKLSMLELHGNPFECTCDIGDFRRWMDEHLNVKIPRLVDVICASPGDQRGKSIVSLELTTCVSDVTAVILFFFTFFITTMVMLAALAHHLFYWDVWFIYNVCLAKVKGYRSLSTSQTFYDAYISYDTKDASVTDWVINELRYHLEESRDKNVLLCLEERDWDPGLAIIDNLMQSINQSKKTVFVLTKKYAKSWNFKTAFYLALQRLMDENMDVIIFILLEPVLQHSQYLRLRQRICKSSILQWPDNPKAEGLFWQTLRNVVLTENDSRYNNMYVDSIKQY
Briefly: Human TLR8 agonist activity assay (measured in a similar manner). The experiment is classed as cell-based. Conditions: HEK-Blue TLR cells, SEAP reporter, measured in a similar manner to TLR7; some values average of multiple measurements. The procedure, abridged:
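Compounds were added to HEK-Blue TLR8 reporter cells, pre-incubated 16-18 h, then treated 18 h at 37° C, 5% CO2. SEAP output was measured with Quanti-Blue (30 min) at OD 620 nm. Some values are averages of multiple measurements.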

Experiment [2] addresses T2, human TLR7 (hTLR7) (Homo sapiens, UniProt Q9NYK1).
T2 construct: host or cells: HEK-Blue TLR7 cells (engineered human embryonic kidney cells)
T2 sequence (Q9NYK1 27-1049): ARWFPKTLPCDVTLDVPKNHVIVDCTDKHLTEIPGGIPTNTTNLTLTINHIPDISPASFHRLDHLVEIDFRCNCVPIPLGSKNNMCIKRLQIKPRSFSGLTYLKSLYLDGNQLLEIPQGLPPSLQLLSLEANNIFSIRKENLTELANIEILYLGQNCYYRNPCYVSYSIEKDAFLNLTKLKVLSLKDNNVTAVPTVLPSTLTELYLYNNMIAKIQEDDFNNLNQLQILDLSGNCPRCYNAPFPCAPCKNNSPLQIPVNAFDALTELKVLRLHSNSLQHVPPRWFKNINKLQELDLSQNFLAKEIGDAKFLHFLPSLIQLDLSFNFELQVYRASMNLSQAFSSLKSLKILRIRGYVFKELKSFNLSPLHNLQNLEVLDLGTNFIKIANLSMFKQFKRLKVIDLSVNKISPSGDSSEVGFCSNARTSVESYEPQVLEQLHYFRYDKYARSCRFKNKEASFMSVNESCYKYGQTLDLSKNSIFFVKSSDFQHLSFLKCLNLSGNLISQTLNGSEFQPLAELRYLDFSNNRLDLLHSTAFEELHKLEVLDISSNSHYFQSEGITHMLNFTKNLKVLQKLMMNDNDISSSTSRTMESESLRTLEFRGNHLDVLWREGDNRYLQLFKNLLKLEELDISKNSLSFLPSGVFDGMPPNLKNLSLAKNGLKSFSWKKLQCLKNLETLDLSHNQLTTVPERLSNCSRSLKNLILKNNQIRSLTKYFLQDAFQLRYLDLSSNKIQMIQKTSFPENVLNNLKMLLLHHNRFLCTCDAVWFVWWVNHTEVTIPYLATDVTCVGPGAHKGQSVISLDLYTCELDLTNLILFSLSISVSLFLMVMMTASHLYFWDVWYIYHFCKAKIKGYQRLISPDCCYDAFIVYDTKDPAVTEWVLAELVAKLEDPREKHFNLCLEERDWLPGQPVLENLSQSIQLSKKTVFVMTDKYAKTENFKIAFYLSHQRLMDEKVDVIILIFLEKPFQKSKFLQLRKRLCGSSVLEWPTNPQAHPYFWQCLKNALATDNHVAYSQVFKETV
Briefly: Human TLR7 agonist activity assay (HEK-Blue TLR7 SEAP reporter). The experiment is classed as cell-based. Conditions: HEK-Blue TLR7 cells, 18 h incubation, Quanti-Blue, OD 620 nm, some values average of multiple measurements. The procedure, abridged:
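HEK-Blue TLR7 cells seeded 16-18 h, then exposed to compound for 18 h at 37 °C, 5% CO2. Secreted SEAP read with Quanti-Blue at OD 620 nm after 30 min. EC50 taken as concentration giving half-maximal response between baseline and maximum; some values averaged over repeats.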

Structures are written as SMILES. pEC50: −log10 of the molar value.

For `CCCCN(CCO)c1nc(N)nc2cn(Cc3c(F)cc(CN4CC5(COC5)C4)cc3OC)nc12` [Compound 83], the pEC50 in experiment [1] is 5.64; in experiment [2], 6.29.

As to `CCCCN(CCO)c1nc(N)nc2cn(Cc3c(F)cc(CN4CC(OC)C4)cc3OC)nc12` [Compound 84], the figures for the pEC50 in experiment [1] and in experiment [2] were 6.30 and 6.70, respectively.

With `CCCCN(CCO)c1nc(N)nc2cn(Cc3ccc(CN[C@@H]4CCOC4)cc3OC)nc12` [Compound 85], the pEC50 was 5.71 in experiment [1] and 6.83 in experiment [2].

In the case of `CCCCN(c1nc(N)nc2cn(Cc3ccc(CN[C@@H]4CCOC4)cc3OC)nc12)C(C)CO` (some centres unmarked) [Compound 86], the figures for the pEC50 in experiment [1] and in experiment [2] were 6.51 and 6.64, respectively.

As for `CCCCN(CCO)c1nc(N)nc2cn(Cc3ccc(CNC4(C)CCOCC4)cc3OC)nc12` [Compound 88, 2-((5-Amino-2-(2-methoxy-4-(((4-methyltetrahydro-2H-pyran-4-yl)amino)methyl)benzyl)-2H-pyrazolo[4,3-d]pyrimidin-7-yl)(butyl)amino)ethan-1-ol], the pEC50 in experiment [1] was 6.27; in experiment [2], 6.09.

For the compound `CCCCN(CCO)c1nc(N)nc2cn(Cc3ccc(CNC4(C)CC4)cc3OC)nc12` [Compound 89], the negative logarithm of the EC50 (pEC50) is 6.02 in experiment [1] and 5.81 in experiment [2].

`CCCCN(CCO)c1nc(N)nc2cn(Cc3cccc4c3OCCN4C(=O)CN(C)C)nc12` [Compound 90]: the pEC50 in experiment [1] was 5.62; in experiment [2], 5.67.

Turning to `CCCCN(CCO)c1nc(N)nc2cn(Cc3c(F)cc(CNC4(CO)CC4)cc3OC)nc12` [Compound 91], the negative logarithm of the EC50 (pEC50) in experiment [1] was 5.68; in experiment [2] it was 5.91.

`CCCCN(CCO)c1nc(N)nc2cn(Cc3c(F)cc(CNCC4(CO)CC4)cc3OC)nc12` [Compound 92]: the pEC50 in experiment [1] is 5.68; in experiment [2], 5.88.

As to `CCCCN(CCO)c1nc(N)nc2cn(Cc3c(F)cc(CN[C@H]4CC[C@H](O)CC4)cc3OC)nc12` [Compound 93], the pEC50 in experiment [1] is 5.72; in experiment [2], 5.59.

For `CCCCN(CCO)c1nc(N)nc2cn(Cc3c(F)cc(CN[C@H]4C[C@H](O)C4)cc3OC)nc12` [Compound 94], the pEC50 in experiment [1] was 5.57; in experiment [2], 5.82.

In the case of `CCCCN(CCO)c1nc(N)nc2cn(Cc3c(F)cc(CN[C@@H]4COC[C@@H]4O)cc3OC)nc12` [Compound 95], the pEC50 in experiment [1] was 5.60; in experiment [2], 5.91.

In the case of `CCCCN(CCO)c1nc(N)nc2cn(Cc3c(F)cc(N4CCC(N[C@@H]5CCOC5)CC4)cc3F)nc12` [Compound 96], the figures for the pEC50 in experiment [1] and in experiment [2] were 5.70 and 6.27, respectively.

As to `CCCCN(CCO)c1nc(N)nc2cn(Cc3ccc(CN4CCCC4)cc3C(F)F)nc12` [Compound 97], the pEC50 in experiment [1] and in experiment [2] was 5.98 throughout.

With `CCCCN(CCO)c1nc(N)nc2cn(Cc3ccc(CNC4CCC4)cc3C(F)F)nc12` [Compound 98], the values for the pEC50 in experiment [1] and in experiment [2] were 5.94 and 5.81, respectively.

Turning to `CCCCN(CCO)c1nc(N)nc2cn(Cc3ccc(CN[C@H]4CCOC4)cc3C(F)F)nc12` [Compound 99], the pEC50 is 5.80 in experiment [1] and 5.72 in experiment [2].

On to `CCCCN(CCO)c1nc(N)nc2cn(Cc3ccc(CNC4CCOCC4)cc3C(F)F)nc12` [Compound 100], for which the pEC50 is 5.85 in experiment [1] and 5.75 in experiment [2].

Regarding `CCCCN(CCO)c1nc(N)nc2cn(Cc3ccc(CN[C@H]4C[C@H](OCC)C4)cc3OC)nc12` [Compound 101], the pEC50 in experiment [1] and in experiment [2] was 5.80 throughout.

Regarding `CCCCN(CCO)c1nc(N)nc2cn(Cc3ccc(CNC4CCC4)cc3NC)nc12` [Compound 102], the pEC50 was 5.74 in experiment [1] and 5.66 in experiment [2].

Turning to `CCCCN(CCO)c1nc(N)nc2cn(Cc3ccc(CNC4CCCOC4)cc3OC)nc12` (centres unmarked) [Compound 104], the pEC50 in experiment [1] was 5.66; in experiment [2] it was 5.76.

As to `CCCCN(CCO)c1nc(N)nc2cn(Cc3ccc(CNC4CCCOC4)cc3OC)nc12` (centres unmarked) [Compound 105], the pEC50 is 5.56 in experiment [1] and 5.74 in experiment [2].

As to `CCCCN(CCO)c1nc(N)nc2cn(Cc3cc(OC)c(C4CCN(CCOC)CC4)cc3OC)nc12` [Compound 106], the results for the pEC50 in experiment [1] and in experiment [2] were 5.60 and 5.94, respectively.

For the compound `CCCCN(CCO)c1nc(N)nc2cn(Cc3cc(OC)c(C4CCN(CC(C)(C)O)CC4)cc3OC)nc12` [Compound 107], the pEC50 in experiment [1] was 5.52; in experiment [2] it was 5.89.

`CCCCN(CCO)c1nc(N)nc2cn(Cc3cc(OC)c(C4CCN(C5CCOCC5)CC4)cc3OC)nc12` [Compound 108]: the pEC50 in experiment [1] is 5.73; in experiment [2], 5.94.

Turning to `CCCCN(CCO)c1nc(N)nc2cn(Cc3cc(OC)c(C4CCN(C5CC6(COC6)C5)CC4)cc3OC)nc12` [Compound 109], the pEC50 is 5.70 in experiment [1] and 5.84 in experiment [2].

For `CCCCN(CCO)c1nc(N)nc2cn(Cc3cc(OC)c(C4CCN(C(C)C)CC4)cc3OC)nc12` [Compound 110], the pEC50 in experiment [1] was 6.15; in experiment [2] it was 7.41.

For the compound `CCCCN(CCO)c1nc(N)nc2cn(Cc3c(F)cc(CNCCO)cc3F)nc12` [Compound 113], the pEC50 was 5.53 in experiment [1] and 6.03 in experiment [2].

As for `CCCCN(CCO)c1nc(N)nc2cn(Cc3c(F)cc(CNCCOC)cc3F)nc12` [Compound 114], the negative logarithm of the EC50 (pEC50) in experiment [1] was 5.74; in experiment [2], 5.98.

For the compound `CCCCN(CCO)c1nc(N)nc2cn(Cc3c(F)cc(CNC4CCOCC4)cc3F)nc12` [Compound 115], the pEC50 is 5.82 in experiment [1] and 6.97 in experiment [2].

On to `CCCCN(CCO)c1nc(N)nc2cn(Cc3c(F)cc(CN[C@@H]4CCOC4)cc3F)nc12` [Compound 116], for which the pEC50 in experiment [1] is 5.99; in experiment [2], 7.51.

Take `CCCCN(CCO)c1nc(N)nc2cn(Cc3c(F)cc(CN[C@H]4C[C@H](O)C4)cc3F)nc12` [Compound 117]: the pEC50 in experiment [1] was 5.70; in experiment [2], 5.93.

In the case of `CCCCN(CCO)c1nc(N)nc2cn(Cc3c(F)cc(CN[C@H]4C[C@@H](OC)C4)cc3F)nc12` [Compound 118], the pEC50 was 5.60 in experiment [1] and 5.80 in experiment [2].

With `CCCCN(CCO)c1nc(N)nc2cn(Cc3c(F)cc(CN[C@H]4C[C@H](OC)C4)cc3F)nc12` [Compound 119], the pEC50 in experiment [1] is 5.71; in experiment [2], 6.87.

For `CCCCN(CCO)c1nc(N)nc2cn(Cc3ccc(CNC4CCOC(C)C4)cc3OC)nc12` (centres unmarked) [Compound 125], the values for the pEC50 in experiment [1] and in experiment [2] were 5.69 and 5.65, respectively.
